Values quoted from earlier work, collected in patent publication US20060165808A1, “Microcapsules for the delayed, controlled release of perindopril” (priority 2002, published 2006).

solubility in aqueous media: very high degree of solubility
Compound: CCC[C@H](N[C@@H](C)C(=O)N1[C@H](C(=O)O)C[C@@H]2CCCC[C@@H]21)C(=O)OCC [perindopril]
